From patent US20170150719A1, “FUNGICIDAL PYRAZOLES AND THEIR MIXTURES” (E I DU PONT DE NEMOURS AND COMPANY, priority 2010, published 2017)
Marks after values point to notes of the source that are not given here.

Key:
[1] = tested on: Blumeria graminis f. sp. tritici; experiment: Test I: wheat powdery mildew, preventive spray on wheat seedlings, visual disease rating; conditions: for Test I rating (% disease control) / Test I rating (% disease control), marked *: wheat powdery mildew, preventive spray; for Test I rating (% disease control): rating without asterisk; for pest or weed control at 40 µg/mL: read-out: Test I rating (% disease control), marked *, wheat powdery mildew, preventive spray; for pest or weed control at 40 µg/mL / Test I rating (% disease control), marked *: rating marked with asterisk (*), other test suspension concentration than unmarked ratings
[2] = tested on: Puccinia recondita f. sp. tritici; experiment: Test H: wheat leaf rust, preventive spray on wheat seedlings, visual disease rating; conditions: for Test H rating (% disease control) / Test H rating (% disease control), marked *: wheat leaf rust, preventive spray; for Test H rating (% disease control): rating without asterisk; for pest or weed control at 40 µg/mL: read-out: Test H rating (% disease control), marked *, wheat leaf rust, preventive spray; for pest or weed control at 40 µg/mL / Test H rating (% disease control), marked *: rating marked with asterisk (*), other test suspension concentration than unmarked ratings
Septoria tritici = experiment: Test F: wheat leaf blotch, preventive spray on wheat seedlings, visual disease rating; format: in vivo; design: pest or weed control: dose or concentration left out as unconfirmed; conditions: for Test F rating (% disease control) / pest or weed control / Test F rating (% disease control), marked *: preventive spray; for Test F rating (% disease control): rating without asterisk; for pest or weed control / Test F rating (% disease control), marked *: rating marked with asterisk (*), other test suspension concentration than unmarked ratings
Text: A hyphen (-) indicates no test results.

Botrytis cinerea = experiment: Test A: tomato Botrytis, preventive spray on tomato seedlings, visual disease rating; conditions: for Test A rating (% disease control) / Test A rating (% disease control), marked *: tomato Botrytis, preventive spray; for Test A rating (% disease control): 0 = no control relative to controls, rating without asterisk; for pest or weed control at 40 µg/mL: read-out: Test A rating (% disease control), marked *, tomato Botrytis, preventive spray; for pest or weed control at 40 µg/mL / Test A rating (% disease control), marked *: rating marked with asterisk (*), other test suspension concentration than unmarked ratings
Septoria nodorum = experiment: Test E: Septoria glume blotch, preventive spray on wheat seedlings, visual disease rating; conditions: Septoria glume blotch on wheat, preventive spray; rating marked with asterisk (*), other test suspension concentration than unmarked ratings
[3] = Blumeria graminis, in Triticum aestivum
[4] = Botrytis cinerea, in Solanum lycopersicum

Compound	Test I rating (% disease control) ([1]; 100 = 100% disease control) [%]	Test H rating (% disease control) ([2]; 100 = 100% disease control) [%]	Test F rating (% disease control) (Septoria tritici; 100 = 100% disease control) [%]	Test A rating (% disease control) (Botrytis cinerea; 100 = 100% disease control) [%]	pest or weed control at 40 µg/mL [1, 3] [%]	pest or weed control at 40 µg/mL [2] [%]	pest or weed control (Septoria tritici; Zymoseptoria tritici) [%]	other results
Cc1nn(C)c(Nc2ccccc2I)c1-c1ccc(F)cc1F [compound 246]	99	98	100	100				
Cc1nn(C)c(Nc2c(F)cc(Cl)cc2F)c1-c1ccc(Br)cc1F [compound 236]	0	28	100	47				
Cc1nn(C)c(Nc2c(F)cc(F)cc2Cl)c1-c1ccc(Br)cc1F [compound 234]	79	91	100	97				
COc1ccc(-c2c(C)nn(C)c2Nc2c(C)cccc2F)c(F)c1 [Compound 259, 4-(2-fluoro-4-methoxyphenyl)-N-(2-fluoro-6-methylphenyl)-1,3-dimethyl-1H-pyrazol-5-amine]					90	82	100	Test E rating (% disease control), marked * (Septoria nodorum): 0* %; pest or weed control at 40 µg/mL (Botrytis cinerea; [4]): 100%
Cc1nn(C)c(Nc2c(F)cc(Cl)cc2F)c1-c1ccc(C#N)cc1F [Compound 150, 4-[5-[(4-chloro-2,6-difluorophenyl)amino]-1,3-dimethyl-1H-pyrazol-4-yl]-3-fluorobenzonitrile]								pest or weed control at 200 µg/mL ([1]; Blumeria graminis, in Triticum aestivum, read-out: Test I rating (disease control), wheat powdery mildew, 100 = 100% disease control, 0 = no disease control relative to the controls): 100%; pest or weed control at 200 µg/mL ([2]; read-out: Test H rating (disease control), wheat leaf rust, sprayed the day before inoculation, 100 = 100% disease control, 0 = no disease control): 100%; pest or weed control at 200 µg/mL (Septoria tritici; Zymoseptoria tritici, 100 = 100% disease control, 0 = no disease control relative to the controls): 100%; pest or weed control at 200 µg/mL (Botrytis cinerea; Botrytis cinerea, in Solanum lycopersicum, read-out: Test A rating (disease control), tomato Botrytis, 100 = 100% disease control, 0 = no disease control relative to the controls): 100%
Cc1nn(C)c(Nc2c(Cl)cc(F)cc2Cl)c1-c1ccc(Br)cc1F [compound 233]	89	91	100	36				
Cc1cccc(C)c1Nc1c(-c2ccc(F)cc2Cl)c(C)nn1C [Compound 271, 4-(2-chloro-4-fluorophenyl)-N-(2,6-dimethylphenyl)-1,3-dimethyl-1H-pyrazol-5-amine]					98	97	100	pest or weed control at 40 µg/mL (Botrytis cinerea; [4]): 99%
COc1ccc(-c2c(C)nn(C)c2Nc2c(C)cccc2Cl)c(Cl)c1 [Compound 262, 4-(2-chloro-4-methoxyphenyl)-N-(2-chloro-6-methylphenyl)-1,3-dimethyl-1H-pyrazol-5-amine]					79	85	100	Test E rating (% disease control), marked * (Septoria nodorum): 0* %; pest or weed control at 40 µg/mL (Botrytis cinerea; [4]): 97%
COc1ccc(-c2c(C)nn(C)c2Nc2c(F)cccc2Br)c(F)c1 [Compound 261, N-(2-bromo-6-fluorophenyl)-4-(2-fluoro-4-methoxyphenyl)-1,3-dimethyl-1H-pyrazol-5-amine]					95	97	100	Test E rating (% disease control), marked * (Septoria nodorum): 0* %
Cc1nn(C)c(Nc2ccccc2Br)c1-c1ccc(F)cc1Br [compound 242]								Test I rating (% disease control), marked * [1]: 99* %; Test H rating (% disease control), marked * [2]: 96* %; Test F rating (% disease control), marked * (Septoria tritici): 100* %; Test A rating (% disease control), marked * (Botrytis cinerea): 99* %
Cc1cccc(Cl)c1Nc1c(-c2ccc(F)cc2Br)c(C)nn1C [Compound 276, 4-(2-bromo-4-fluorophenyl)-N-(2-chloro-6-methylphenyl)-1,3-dimethyl-1H-pyrazol-5-amine]					92	99	100	pest or weed control at 40 µg/mL (Botrytis cinerea; [4]): 100%
Cc1nn(C)c(Nc2ccccc2Cl)c1-c1ccc(F)cc1Br [compound 272]	100	99	100	100				
Cc1nn(C)c(Nc2c(Cl)cc(F)cc2Cl)c1-c1ccc(C#N)cc1F [compound 249]	92	98	100	100				
Cc1cccc(C)c1Nc1c(-c2ccc(F)cc2F)c(C)nn1C [Compound 270, 4-(2,4-difluorophenyl)-N-(2,6-dimethylphenyl)-1,3-dimethyl-1H-pyrazol-5-amine]					91	41	100	pest or weed control at 40 µg/mL (Botrytis cinerea; [4]): 98%
Cc1nn(C)c(Nc2ccc(F)cc2Cl)c1-c1ccc(C#N)cc1F [Compound 248]	99	99	100	99				
Cc1nn(C)c(Nc2c(F)cc(F)cc2C#N)c1-c1ccc(C#N)cc1F [compound 250]	89	100	100	0				
Cc1nn(C)c(Nc2ccccc2I)c1-c1ccc(F)cc1Br [compound 243]	100	99	100	100				
Cc1nn(C)c(Nc2c(Cl)cccc2Cl)c1-c1ccc(F)cc1F [compound 251]	100	100	100	100				
Cc1nn(C)c(Nc2c(F)cc(Cl)cc2Cl)c1-c1ccc(Br)cc1F [compound 237]	95	92	100	99				
COc1ccc(-c2c(C)nn(C)c2Nc2c(C)cccc2Cl)c(F)c1 [Compound 257, N-(2-chloro-6-methylphenyl)-4-(2-fluoro-4-methoxyphenyl)-1,3-dimethyl-1H-pyrazol-5-amine]					27	63	100	Test E rating (% disease control), marked * (Septoria nodorum): 31* %; pest or weed control at 40 µg/mL (Botrytis cinerea; [4]): 100%
Cc1nn(C)c(Nc2c(F)cc(F)cc2Br)c1-c1ccc(Br)cc1F [compound 235]	90	96	100	99				
Cc1nn(C)c(Nc2c(Cl)cccc2Cl)c1-c1ccc(F)cc1Br [compound 256]								Test I rating (% disease control), marked * [1]: 64* %; Test H rating (% disease control), marked * [2]: 95* %; Test F rating (% disease control), marked * (Septoria tritici): 100* %; Test A rating (% disease control), marked * (Botrytis cinerea): 99* %
Cc1nn(C)c(Nc2c(Cl)cccc2Cl)c1-c1ccc(F)cc1Cl [compound 255]								Test I rating (% disease control), marked * [1]: 81* %; Test H rating (% disease control), marked * [2]: 99* %; Test F rating (% disease control), marked * (Septoria tritici): 100* %; Test A rating (% disease control), marked * (Botrytis cinerea): 100* %
Cc1nn(C)c(Nc2ccc(F)cc2Cl)c1-c1ccc(Br)cc1F [compound 232]	99	90	100	79				
COc1ccc(-c2c(C)nn(C)c2Nc2c(F)cccc2Cl)c(F)c1 [Compound 260, N-(2-chloro-6-fluorophenyl)-4-(2-fluoro-4-methoxyphenyl)-1,3-dimethyl-1H-pyrazol-5-amine]					90	85	100	Test E rating (% disease control), marked * (Septoria nodorum): 0* %; pest or weed control at 40 µg/mL (Botrytis cinerea; [4]): 100%
